Measured values as given in patent US7199286B2, “Plant-derived novel pathogen and SAR-induction chemical induced promoters, and fragments thereof” (Syngenta Participations AG, priority 1999, dated 2007).

System: NI16 promoter fragment 274 bp
Assay: GUS florescence assay of promoter::GUS plants after SA application, NI16 274 bp fragment
Type: in vivo, Arabidopsis
Details: 5 mM SA spray
Excerpt: A binary promoter::reporter plasmid (pNOV2374) for Arabidopsis transformation was constructed. The regulatory/promoter sequence was fused to the GUS reporter gene (Jefferson et al. (1987) EMBO J 6: 3901-3907) by recombination using […] Technology according to the manufacturer's protocol as described in the Instruction Manual (LifeTechnologies, Rockville, Md.). The construct was then transformed into Agrobacterium tumefaciens strains by electroporation. pNOV2374 is a binary vector with a VS1 origin of replication, a copy of the Agrobacterium virg gene in the backbone, and a Basta® resistance selectable marker cassette between the left and right border sequences of the T-DNA. The Basta® selectable marker cassette comprises the Agrobacterium tumefaciens manopine synthase promoter (AtMas) (Barker et al., Plant Mol. Biol. 2, 335-350 (1983)) operably linked to the gene encoding Basta® resistance (i.e., the “BAR” gene, phosphinothricin acetyl transferase) (White et al., Nucl Acids Res 18: 1062 (1990)) and the 35S terminator. The AtMas promoter, the BAR coding sequence, and the 35S terminator are located at nt 4211 to nt 4679, nt 4680 to nt 5228, and nt 5263 to nt 5488, respectively, of pNOV2374. The vector contains […] recombination components, which were introduced into the binary vector backbone by ligating a blunt-ended cassette containing attR sites, ccdB, and a cholramphenicol resistance marker using the […] Vector Conversion System (LifeTechnologies, Rockville, Md.). The […] cassette was located between nt 126 and 1818 of pNOV2374. The promoter cassettes were inserted through an LR recombination reaction whereby the DNA sequence of pNOV2374 between nt 126 and nt 1818 were removed and replaced with the promoter of interest flanked by att sequences. […] The GIG gene (SEQ ID NO:29) contains the ST-LS1 intron from Solanum tuberosum at nt 385 to nt 576 of GUS (obtained from Dr. Stanton […], Purdue University, and described in Narasimhulu, et al. (1996) Plant Cell 8: 873-886.). […] The treatment was applied as a fine mist to the leaves. […] For quantitative analysis of promoter activity following induction treatments or in various Arabidopsis tissues and organs, GUS expression is measured florometrically. Tissue samples were harvested and ground in ice cold GUS extraction buffer (50 mM Na2HPO4 pH 7.0, 5 mM DTT, 1 mM Na2EDTA, 0.1% TritonX100, 0.1% sarcosyl). Ground samples were spun in a microfuge at 10,000 rpm for 15 minutes at 4° C. Following centrifugation, the supernatant was removed for the GUS assay and for a protein concentration determination. To measure GUS activity, the plant extract was assayed in GUS assay buffer (50 mM Na2HPO4 pH 7.0, 5 mM DTT, 1 mM Na2EDTA, 0.1% TritonX100, 0.1% sarcosyl, 1 mM 4-Methylumbelliferyl-beta-D-glucuronic acid dihydrate (MUG)), pre-warmed to 37° C. Reactions were incubated, and 100 uL aliquots were removed at 10 minute intervals over 30 minutes to stop the reaction by adding the 100 uL aliquots to tubes containing 900 uL of 2% Na2CO3. The stopped reactions were then read on a Tecan Spectroflourometer at 365 nm excitation and 455 emission wavelengths. Protein concentrations were determined using the BCA assay following the manufacturer's protocol. GUS activity is expressed as pmol MU/mg protein/min.

SMILES: O=C(O)c1ccccc1O [SA, salicylic acid]
- GUS Activity Induced by SA (2 h): 27.5 pmol/mg protein/min
- GUS activity Fold-change relative to T0 (uninduced) (2 h): 1.4 fold
- GUS Activity Induced by SA (4 h): 58.7 pmol/mg protein/min
- GUS activity Fold-change relative to T0 (uninduced) (4 h): 3.0 fold
- GUS Activity Induced by SA (8 h): 150.8 pmol/mg protein/min
- GUS activity Fold-change relative to T0 (uninduced) (8 h): 7.8 fold
- GUS Activity Induced by SA (24 h): 230.3 pmol/mg protein/min
